Laboratory results from US10191057B2, “Methods of diagnosing, classifying and treating endometrial cancer and precancer” (THE TRANSLATIONAL GENOMICS RESEARCH INSTITUTE, priority 2007, dated 2019).

Experiments:
[1] = test system: AN3CA (FGFR2 N550K mutant) xenograft tumors; assay: AN3CA xenograft tumor growth; conditions: 25 mg/kg twice daily by oral gavage
Description: (§3) Briefly, mice were inoculated subcutaneously with 0.1 ml of a 50% RPMI/50% Matrigel™ mixture containing a suspension of tumor cells (1×10^7 cells/mouse). […] Tumor weight measurements were recorded three times a week.

[2] = test system: KLE cells (wildtype FGFR2); assay: SRB cell viability assay, KLE; format: cell-based; conditions: Homo sapiens, read-out: PD173074 IC50, cell viability, SRB assay 72 hours after addition, full growth medium
[3] = test system: AN3CA cells; assay: Annexin V-FITC labeling of apoptotic cells, AN3CA; format: cell-based, human
Description: (§1) Cells were plated at a density of 4×10^5 cells per well in a 6 well plate. The next day, cells were infected with lentiviral stocks in the presence of 6 μg/ml polybrene (Sigma-Aldrich, St. Louis, Mo.). Empty vector and nonsilencing shRNA infections were used as controls for each experiment. […] Growth Inhibition Assay Twenty-four hours after infection, cells were trypsinized and plated in 96 well plates in full growth medium at a density of 5,000 cells per well, in triplicate, and proliferation assessed using the Sulforhodamine B (SRB) assay (Sigma-Aldrich, St. Louis, Mo.). […] The protein-bound dye was dissolved in 10 mM Tris base solution, and absorbance measured at 510 nm. […] 48 hours after transfection, floating and attached cells were collected, washed in cold PBS, resuspended in Annexin binding buffer (10 mM Hepes (pH 7.4), 140 mM NaCl, 2.5 mM CaCl2), stained with 500 ng/mL annexinV-FITC and 1 μg/mL propidium iodide (Sigma-Aldrich, St. Louis, Mo.), and analyzed for annexin positive cells using a CyAn ADP flow cytometer and Summit software, version 4.3 (Dako Cytomation, Carpinteria, Calif.). […] 72 hours later, cells were stained with propidium iodide as described {Krishan, 1975 #28} and analyzed by flow cytometry. […] FGFR2 expression was detected with BekC17 antibody (Santa Cruz Biotechnology, Inc., Santa Cruz, Calif.). […]

[4] = test system: p38; assay: Western blot, activation of p38; format: cell-based, human; conditions: 10% FBS
Description: (§2) Cells were plated at a density of 4×10^5 cells per well in a 6 well plate. The next day, cells were infected with lentiviral stocks in the presence of 6 μg/ml polybrene (Sigma-Aldrich, St. Louis, Mo.). Empty vector and nonsilencing shRNA infections were used as controls for each experiment. […] Growth Inhibition Assay Twenty-four hours after infection, cells were trypsinized and plated in 96 well plates in full growth medium at a density of 5,000 cells per well, in triplicate, and proliferation assessed using the Sulforhodamine B (SRB) assay (Sigma-Aldrich, St. Louis, Mo.). At the indicated time points, wells were fixed with 10% (wt/vol) trichloroacetic acid, stained with SRB for 30 min, and washed with 1% (vol/vol) acetic acid. The protein-bound dye was dissolved in 10 mM Tris base solution, and absorbance measured at 510 nm. […] Annexin V-FITC Labeling of Apoptotic Cells Annexin V-FITC staining was used to measure phosphatidylserine exposure on cells undergoing apoptosis, according to the manufacturer's instructions (BioVision, Inc. Mountain View, Calif.). […] 2.5×10^5 cells were plated per well in a 6 well plate. Twenty-four hours later, cells were transfected with 25 nM nonsilencing (NS) siRNA or FGFR2 siRNA X2 using Lipofectamine 2000 transfection reagent. The siRNA duplex was allowed to form a complex with Lipofectamine 2000 for 20 minutes at room temperature, and transfection carried out at 37° C. for 24 hours. 48 hours after transfection, floating and attached cells were collected, washed in cold PBS, resuspended in Annexin binding buffer (10 mM Hepes (pH 7.4), 140 mM NaCl, 2.5 mM CaCl2), stained with 500 ng/mL annexinV-FITC and 1 μg/mL propidium iodide (Sigma-Aldrich, St. Louis, Mo.), and analyzed for annexin positive cells using a CyAn ADP flow cytometer and Summit software, version 4.3 (Dako Cytomation, Carpinteria, Calif.). […] Cell Cycle Analysis Cells were plated at a density of 1×10^5 cells per well in a 6 well plate. […] 72 hours later, cells were stained with propidium iodide as described {Krishan, 1975 #28} and analyzed by flow cytometry. Cell cycle analysis was performed using ModFit software (Verity Software House, Inc. Topsham, Me.). Western Blot Analysis Cells were plated in 60 mm^2 dishes at a density of 2×10^6 cells per dish. […] Cells were washed in ice cold PBS, lysed in kinase buffer [20 mM Hepes pH7.4, 2 mM EGTA, 1% Triton X100, 10% glycerol, 1 mM Na3VO4, 1 mM NaF, 100 uM AEBSF, and 1 tablet/10 mL of Mini Complete Protease Inhibitor (Roche Molecular Biochemicals, Indianapolis, Ind.)], briefly sonicated on ice, and protein concentrations estimated using Quick Start Bradford Reagent with bovine gamma-globulin standards (Bio-Rad Laboratories, Hercules, Calif.). Equal amounts of protein were separated by SDS-PAGE on 4-12% gradient gels and transferred to polyvinylidene difluoride membranes (Invitrogen, Carlsbad, Calif.). Membranes were immunoblotted with antibodies to phosphorylated and total AKT, ERK1/2, p38, STAT-3 and STAT-5, PLCγ and total PTEN (Cell Signaling Technology, Beverly, Mass.). FGFR2 expression was detected with BekC17 antibody (Santa Cruz Biotechnology, Inc., Santa Cruz, Calif.). Horseradish peroxidase-conjugated goat anti-mouse or anti-rabbit secondary antibodies (Biomeda, Foster City, Calif.), were used, followed by chemiluminescence staining. For shRNA studies, lysates were collected 48 hours after shRNA transduction and processed as described above. Statistical Analysis

[5] = test system: ERK1/2; assay: Western blot, activation of ERK1/2; format: cell-based, human
Description: as §2

[6] = test system: AN3CA cells (N550K FGFR2 mutation); assay: SRB cell proliferation/viability assay, AN3CA; format: cell-based; conditions: Homo sapiens, AN3-CA, read-out: PD173074 IC50, cell viability, SRB assay 72 hours after addition, full growth medium
[7] = test system: PLCγ; assay: Western blot, activation of PLCγ; format: cell-based, human; conditions: following PD173074 treatment, data not shown
Description: as §1

[8] = test system: HEC1A cells (wildtype FGFR2); assay: SRB cell viability assay, HEC1A; format: cell-based; conditions: Homo sapiens, HEC-1-A, read-out: PD173074 IC50, cell viability, SRB assay 72 hours after addition, full growth medium
Description: as §1

[9] = test system: myeloma cells with an activating t(4; 14) translocation and activating mutations in FGFR3; conditions: t(4; 14) translocation and activating FGFR3 mutations; cited from earlier work
[10] = test system: MFE296 cells; assay: Annexin V-FITC labeling of apoptotic cells, MFE296; format: cell-based, human; conditions: MFE296, data not shown
Description: as §1

[11] = test system: Hec1A (FGFR2 wild type) xenograft tumors; assay: Hec1A xenograft tumor growth; conditions: 25 mg/kg twice daily by oral gavage
Description: as §3

[12] = test system: Ishikawa cells (wildtype FGFR2); assay: SRB cell viability assay, Ishikawa; format: cell-based; conditions: Homo sapiens, read-out: PD173074 IC50, cell viability, SRB assay 72 hours after addition, full growth medium
Description: as §1

[13] = test system: STAT3; assay: Western blot, activation of STAT3; format: cell-based, human; conditions: 10% FBS
Description: as §2

[14] = test system: AKT; assay: Western blot, activation of AKT; format: cell-based, human; conditions: for AKT activation: HEC1A
Description: as §2

[15] = test system: MFE296 cells (N550K FGFR2 mutation); assay: SRB cell proliferation/viability assay, MFE296; format: cell-based; conditions: Homo sapiens, MFE-296, read-out: PD173074 IC50, cell viability; MFE296, SRB assay 72 hours after addition, full growth medium
Description: as §1

[16] = test system: AN3CA cells; assay: Cell cycle analysis (propidium iodide, flow cytometry), AN3CA; format: cell-based, human; conditions: 1 μM, 72 hrs
Description: as §1

[17] = target: VEGFR2 (Homo sapiens, UniProt P35968); conditions: cited from earlier work
[18] = test system: RL952 cells (wildtype FGFR2); assay: SRB cell viability assay, RL952; format: cell-based; conditions: Homo sapiens, RL95-2, read-out: PD173074 IC50, cell viability; RL952, SRB assay 72 hours after addition, full growth medium
Description: as §1

[19] = test system: MFE296 cells; assay: Cell cycle analysis, MFE296; format: cell-based, human; conditions: MFE296, data not shown
Description: as §1

[20] = AN3CA, increasing concentrations, 3 hours
[21] = HEC1A, increasing concentrations, 3 hours
[22] = MFE296, increasing concentrations, 3 hours
[23] = AN3CA, 1 μM, 0 to 72 hours, 0.2% FBS
[24] = AN3CA, 1 μM, 0 to 72 hours, 10% FBS
[25] = AN3CA, increasing concentrations, 3 hours, 10% FBS
[26] = MFE296, 1 μM, 0 to 72 hours, 0.2% FBS
[27] = MFE296, 1 μM, 0 to 72 hours, 10% FBS
[28] = MFE296, increasing concentrations, 3 hours, 10% FBS

VEGFR2, sequence (P35968 20-1356, species assumed): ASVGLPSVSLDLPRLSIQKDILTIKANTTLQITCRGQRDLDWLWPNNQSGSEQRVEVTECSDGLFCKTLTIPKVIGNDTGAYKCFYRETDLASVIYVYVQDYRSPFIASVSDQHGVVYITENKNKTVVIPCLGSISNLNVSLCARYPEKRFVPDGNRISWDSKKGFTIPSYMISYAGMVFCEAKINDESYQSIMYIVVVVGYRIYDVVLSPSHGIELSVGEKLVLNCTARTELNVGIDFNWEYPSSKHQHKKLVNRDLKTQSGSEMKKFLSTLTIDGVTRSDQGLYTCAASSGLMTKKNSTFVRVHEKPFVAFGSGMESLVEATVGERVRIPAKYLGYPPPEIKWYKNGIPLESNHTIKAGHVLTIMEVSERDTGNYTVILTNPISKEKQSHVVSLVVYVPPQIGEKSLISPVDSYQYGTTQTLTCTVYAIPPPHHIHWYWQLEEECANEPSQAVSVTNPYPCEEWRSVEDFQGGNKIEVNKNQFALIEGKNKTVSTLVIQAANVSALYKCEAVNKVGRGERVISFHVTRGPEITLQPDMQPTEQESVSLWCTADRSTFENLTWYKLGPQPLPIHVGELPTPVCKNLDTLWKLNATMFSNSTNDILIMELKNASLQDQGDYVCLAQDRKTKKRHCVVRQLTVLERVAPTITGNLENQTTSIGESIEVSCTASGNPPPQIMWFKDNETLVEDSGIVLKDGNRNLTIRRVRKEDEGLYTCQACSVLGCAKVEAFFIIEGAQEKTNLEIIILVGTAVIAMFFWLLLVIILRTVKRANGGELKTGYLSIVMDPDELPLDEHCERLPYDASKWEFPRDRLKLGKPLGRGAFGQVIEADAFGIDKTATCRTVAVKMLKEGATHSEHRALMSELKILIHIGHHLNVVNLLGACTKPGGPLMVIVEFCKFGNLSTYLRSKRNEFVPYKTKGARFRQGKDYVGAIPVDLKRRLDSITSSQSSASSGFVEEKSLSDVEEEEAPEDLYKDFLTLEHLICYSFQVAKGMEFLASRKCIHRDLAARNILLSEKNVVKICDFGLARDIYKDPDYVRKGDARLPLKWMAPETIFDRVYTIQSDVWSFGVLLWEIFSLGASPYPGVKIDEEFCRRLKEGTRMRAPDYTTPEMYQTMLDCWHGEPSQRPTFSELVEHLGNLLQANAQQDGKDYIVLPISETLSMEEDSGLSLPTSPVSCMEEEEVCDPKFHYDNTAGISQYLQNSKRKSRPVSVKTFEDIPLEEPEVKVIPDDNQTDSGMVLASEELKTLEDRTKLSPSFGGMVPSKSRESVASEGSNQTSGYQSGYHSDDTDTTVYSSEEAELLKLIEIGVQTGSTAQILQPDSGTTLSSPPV

CCN(CC)CCCCNc1ncc2cc(-c3cc(OC)cc(OC)c3)c(NC(=O)NC(C)(C)C)nc2n1 [PD173074]
growth of xenograft tumors [1]: suppressed growth of all eight | tumors with tumor regression [1]: six of the eight | mean tumor shrinkage ([1]; regressing tumors): 51% | IC50 [2]: > 1000 nM | Annexin-V staining compared to DMSO ([3]; 1 μM, 48, 72 or 96 hours): increase in Annexin-V staining | cells undergoing apoptosis (Annexin V-FITC labeling) ([3]; 1 μM, 96 hours after drug treatment): ~70% | p38 activation ([4]; AN3CA, 1 μM, 0 to 72 hours): no effect | p38 activation [4, 20]: no effect | p38 activation ([4]; HEC1A, 1 μM, 0 to 72 hours): no effect | p38 activation [4, 21]: no effect | p38 activation ([4]; MFE296, 1 μM, 0 to 72 hours): no effect | p38 activation [4, 22]: no effect | ERK1/2 activation [5, 23]: suppression of ERK1/2 activation | ERK1/2 activation [5, 24]: suppression of ERK1/2 activation | ERK1/2 activation [5, 25]: suppression of ERK1/2 activation | ERK1/2 activation ([5]; HEC1A, 1 μM, 0 to 72 hours, 0.2% FBS): no effect | ERK1/2 activation ([5]; HEC1A, 1 μM, 0 to 72 hours, 10% FBS): no effect | ERK1/2 activation ([5]; HEC1A, increasing concentrations, 3 hours, 10% FBS): no effect | ERK1/2 activation [5, 26]: suppression of ERK1/2 activation | ERK1/2 activation [5, 27]: suppression of ERK1/2 activation | ERK1/2 activation [5, 28]: suppression of ERK1/2 activation | IC50 [6]: 61.7 nM | PLCγ activation [7]: no change | IC50 [8]: > 3000 nM | apoptosis in myeloma cells [9]: induce apoptosis | Annexin V staining [10]: did not result in enhanced Annexin V staining | effect on xenograft tumors [11]: minimal effect | IC50 [12]: 2920 nM | STAT3 activation ([13]; AN3CA, 1 μM, 0 to 72 hours): no effect | STAT3 activation [13, 20]: no effect | STAT3/5 activation ([13]; HEC1A, 1 μM, 0 to 72 hours): no effect | STAT3 activation [13, 21]: no effect | STAT3 activation ([13]; MFE296, 1 μM, 0 to 72 hours): no effect | STAT3 activation [13, 22]: no effect | AKT phosphorylation [14, 23]: modest suppression of AKT phosphorylation | AKT phosphorylation [14, 24]: partial suppression of AKT phosphorylation | AKT phosphorylation [14, 25]: modest suppression of AKT phosphorylation | AKT activation ([14]; 1 μM, 0 to 72 hours, 0.2% FBS): no effect | AKT activation ([14]; 1 μM, 0 to 72 hours, 10% FBS): no effect | AKT activation ([14]; increasing concentrations, 3 hours, 10% FBS): no effect | AKT phosphorylation [14, 26]: modest suppression of AKT phosphorylation | AKT phosphorylation [14, 27]: partial suppression of AKT phosphorylation | AKT phosphorylation [14, 28]: modest suppression of AKT phosphorylation | IC50 [15]: 284 nM | cell cycle effect [16]: G1 cell cycle arrest | IC50 [17]: ~100 nM | IC50 [18]: > 1000 nM | cell cycle effect [19]: induced cell cycle arrest
